Results reported in patent US20210045385A1, “PYRIDAZINONE-SUBSTITUTED KETOXIMES AS HERBICIDES” (FMC Corporation, priority 2018, published 2021).

Assays:
Type in all cases: in vivo
[1] = test system: Italian ryegrass (Lolium multiflorum); test: Test A preemergence, visual plant response rating; conditions: for Ryegrass, Italian plant response rating: 125 g ai/ha, preemergence, 0 to 100 scale, 0 no effect, 100 complete control; for Ryegrass, Italian plant response rating (0 to 100 scale): 500 g ai/ha Preemergence, approx. 10 days
In short: (§1)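 Greenhouse pot test in loam–sand soil mix: compound in a surfactant-containing non-phytotoxic solvent applied preemergence (directed soil spray) or postemergence (one- to two-leaf plants, 2–10 cm). Injury scored visually after ~10 days, 0–100.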

[2] = test system: barnyardgrass (Echinochloa crus-galli); test: Test A preemergence, visual plant response rating; conditions: for Barnyardgrass plant response rating: 125 g ai/ha, preemergence, 0 to 100 scale, 0 no effect, 100 complete control; for Barnyardgrass plant response rating (0 to 100 scale): 500 g ai/ha Preemergence, approx. 10 days
In short: as §1

[3] = test system: foxtail, giant (giant foxtail, Setaria faberii); test: Test A preemergence, visual plant response rating; conditions: for Foxtail, Giant plant response rating: 125 g ai/ha, preemergence, 0 to 100 scale, 0 no effect, 100 complete control; for Foxtail, Giant plant response rating (0 to 100 scale): 500 g ai/ha Preemergence, approx. 10 days
In short: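 Formulated in a non-phytotoxic solvent mixture including surfactant, each test chemical was sprayed onto the soil surface after sowing, or onto seedlings 2 to 10 cm high. Roughly 10 days later, plants were compared with untreated controls and rated for injury from 0 (no effect) to 100 (complete control).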

kochia (Kochia scoparia) [4] = test: Test A preemergence, visual plant response rating; conditions: for Kochia plant response rating: 125 g ai/ha, preemergence, 0 to 100 scale, 0 no effect, 100 complete control; for Kochia plant response rating (0 to 100 scale): 500 g ai/ha Preemergence, approx. 10 days
In short: as §1

[5] = test system: pigweed (Amaranthus retroflexus); test: Test A preemergence, visual plant response rating; conditions: for Pigweed plant response rating: 125 g ai/ha, preemergence, 0 to 100 scale, 0 no effect, 100 complete control; for Pigweed plant response rating (0 to 100 scale): 500 g ai/ha Preemergence, approx. 10 days
In short: as §1

[6] = test system: ragweed (common ragweed, Ambrosia elatior); test: Test A preemergence, visual plant response rating; conditions: for Ragweed plant response rating: 125 g ai/ha, preemergence, 0 to 100 scale, 0 no effect, 100 complete control; for Ragweed plant response rating (0 to 100 scale): 500 g ai/ha Preemergence, approx. 10 days
In short: as §1

[7] = test system: Italian ryegrass (Lolium multiflorum); test: Test A postemergence, visual plant response rating; conditions: for Ryegrass, Italian plant response rating (0 to 100 scale): 500 g ai/ha, postemergence, 0 is no effect, 100 is complete control; for Ryegrass, Italian plant response rating: Postemergence, 125 g ai/ha, 0 to 100 scale (0 no effect, 100 complete control)
In short: as §1

[8] = test system: barnyardgrass (Echinochloa crus-galli); test: Test A postemergence, visual plant response rating; conditions: for Barnyardgrass plant response rating (0 to 100 scale): 500 g ai/ha, postemergence, 0 is no effect, 100 is complete control; for Barnyardgrass plant response rating: Postemergence, 125 g ai/ha, 0 to 100 scale (0 no effect, 100 complete control)
In short: as §1

[9] = test system: blackgrass (Alopecurus myosuroides); test: Test A postemergence, visual plant response rating; conditions: for Blackgrass plant response rating (0 to 100 scale): 500 g ai/ha, postemergence, 0 is no effect, 100 is complete control; for Blackgrass plant response rating: Postemergence, 125 g ai/ha, 0 to 100 scale (0 no effect, 100 complete control)
In short: as §1

corn (Zea mays) = test: Test A postemergence, visual plant response rating; conditions: for Corn plant response rating (0 to 100 scale): 500 g ai/ha, postemergence, 0 is no effect, 100 is complete control; for Corn plant response rating: Postemergence, 125 g ai/ha, 0 to 100 scale (0 no effect, 100 complete control)
In short: as §1

[10] = test system: foxtail, giant (giant foxtail, Setaria faberii); test: Test A postemergence, visual plant response rating; conditions: for Foxtail, Giant plant response rating (0 to 100 scale): 500 g ai/ha, postemergence, 0 is no effect, 100 is complete control; for Foxtail, Giant plant response rating: Postemergence, 125 g ai/ha, 0 to 100 scale (0 no effect, 100 complete control)
In short: as §1

[11] = test system: galium (catchweed bedstraw, Galium aparine); test: Test A postemergence, visual plant response rating; conditions: for Galium plant response rating (0 to 100 scale): 500 g ai/ha, postemergence, 0 is no effect, 100 is complete control; for Galium plant response rating: Postemergence, 125 g ai/ha, 0 to 100 scale (0 no effect, 100 complete control)
In short: as §1

kochia (Kochia scoparia) [12] = test: Test A postemergence, visual plant response rating; conditions: for Kochia plant response rating (0 to 100 scale): 500 g ai/ha, postemergence, 0 is no effect, 100 is complete control; for Kochia plant response rating: Postemergence, 125 g ai/ha, 0 to 100 scale (0 no effect, 100 complete control)
In short: as §1

[13] = test system: pigweed (Amaranthus retroflexus); test: Test A postemergence, visual plant response rating; conditions: for Pigweed plant response rating (0 to 100 scale): 500 g ai/ha, postemergence, 0 is no effect, 100 is complete control; for Pigweed plant response rating: Postemergence, 125 g ai/ha, 0 to 100 scale (0 no effect, 100 complete control)
In short: as §1

[14] = test system: ragweed (common ragweed, Ambrosia elatior); test: Test A postemergence, visual plant response rating; conditions: for Ragweed plant response rating (0 to 100 scale): 500 g ai/ha, postemergence, 0 is no effect, 100 is complete control; for Ragweed plant response rating: Postemergence, 125 g ai/ha, 0 to 100 scale (0 no effect, 100 complete control)
In short: as §1

[15] = test system: wheat (Triticum aestivum); test: Test A postemergence, visual plant response rating; conditions: for Wheat plant response rating (0 to 100 scale): 500 g ai/ha, postemergence, 0 is no effect, 100 is complete control; for Wheat plant response rating: Postemergence, 125 g ai/ha, 0 to 100 scale (0 no effect, 100 complete control)
In short: as §1

[16] = test system: barnyardgrass (Echinochloa crus-galli); test: Test B flooded paddy test, visual plant response rating; conditions: 250 g ai/ha, Flood, applied to paddy water, 2-leaf stage, evaluated after 13 to 15 days
In short: (§2)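 Compounds added straight into paddy water of pots flooded to 3 cm, with 2-leaf-stage plants of the four species; water level held throughout.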

[17] = test system: ducksalad (Heteranhera limosa); test: as above; conditions: 250 g ai/ha, Flood, applied to paddy water, 2-leaf stage, evaluated after 13 to 15 days
In short: as §2

rice (Oryza sativa) = test: as above; conditions: 250 g ai/ha, Flood, applied to paddy water, 2-leaf stage, evaluated after 13 to 15 days
In short: as §2

[18] = test system: sedge, umbrella (small-flower umbrella sedge, Cyperus difformis); test: as above; conditions: 250 g ai/ha, Flood, applied to paddy water, 2-leaf stage, evaluated after 13 to 15 days
In short: as §2

Compound	Ryegrass, Italian plant response rating [1]	Ryegrass, Italian plant response rating (0 to 100 scale) [1]	Barnyardgrass plant response rating [2]	Barnyardgrass plant response rating (0 to 100 scale) [2]	Foxtail, Giant plant response rating [3]	Foxtail, Giant plant response rating (0 to 100 scale) [3]	Kochia plant response rating (kochia (Kochia scoparia) [4])	Kochia plant response rating (0 to 100 scale) (kochia (Kochia scoparia) [4])	Pigweed plant response rating [5]	Pigweed plant response rating (0 to 100 scale) [5]	Ragweed plant response rating [6]	Ragweed plant response rating (0 to 100 scale) [6]	Ryegrass, Italian plant response rating (0 to 100 scale) [7]	Ryegrass, Italian plant response rating [7]	Barnyardgrass plant response rating (0 to 100 scale) [8]	Barnyardgrass plant response rating [8]	Blackgrass plant response rating (0 to 100 scale) [9]	Blackgrass plant response rating [9]	Corn plant response rating (0 to 100 scale) (corn (Zea mays))	Corn plant response rating (corn (Zea mays))	further results
CON=C(c1cc(C)ccc1Cl)c1c(O)c(C)nn(C)c1=O [Compound 67]	0	10	0	0	0	0	0	10	0	0	10	10	20	10	0	0	30	0	0	0	Foxtail, Giant plant response rating (0 to 100 scale) [10]: 10; Foxtail, Giant plant response rating [10]: 0; Galium plant response rating (0 to 100 scale) [11]: 80; Galium plant response rating [11]: 70; Kochia plant response rating (0 to 100 scale) (kochia (Kochia scoparia) [12]): 20; Kochia plant response rating (kochia (Kochia scoparia) [12]): 20; Pigweed plant response rating (0 to 100 scale) [13]: 30; Pigweed plant response rating [13]: 0; Ragweed plant response rating (0 to 100 scale) [14]: 70; Ragweed plant response rating [14]: 50; Wheat plant response rating (0 to 100 scale) [15]: 0; Wheat plant response rating [15]: 0; Plant response rating, Barnyardgrass (0 to 100 scale, 0 is no effect, 100 is complete control) [16]: 0; Plant response rating, Ducksalad (0 to 100 scale, 0 is no effect, 100 is complete control) [17]: 0; Plant response rating, Rice (0 to 100 scale, 0 is no effect, 100 is complete control) (rice (Oryza sativa)): 0; Plant response rating, Sedge, Umbrella (0 to 100 scale, 0 is no effect, 100 is complete control) [18]: 0
CCc1cccc(/C(=N\OC)c2c(O)c(C)nn(C)c2=O)c1 [Compound 68]	30	60	0	0	0	20	10	40	50	80	20	50	30	20	0	0	30	30	0	0	Foxtail, Giant plant response rating (0 to 100 scale) [10]: 10; Foxtail, Giant plant response rating [10]: 0; Galium plant response rating (0 to 100 scale) [11]: 70; Galium plant response rating [11]: 60; Kochia plant response rating (0 to 100 scale) (kochia (Kochia scoparia) [12]): 80; Kochia plant response rating (kochia (Kochia scoparia) [12]): 70; Pigweed plant response rating (0 to 100 scale) [13]: 80; Pigweed plant response rating [13]: 30; Ragweed plant response rating (0 to 100 scale) [14]: 90; Ragweed plant response rating [14]: 70; Wheat plant response rating (0 to 100 scale) [15]: 0; Wheat plant response rating [15]: 0; Plant response rating, Barnyardgrass (0 to 100 scale, 0 is no effect, 100 is complete control) [16]: 0; Plant response rating, Ducksalad (0 to 100 scale, 0 is no effect, 100 is complete control) [17]: 0; Plant response rating, Rice (0 to 100 scale, 0 is no effect, 100 is complete control) (rice (Oryza sativa)): 0; Plant response rating, Sedge, Umbrella (0 to 100 scale, 0 is no effect, 100 is complete control) [18]: 0
